Assay results reported in patent publication US20250179078A1, “INHIBITORS OF NLRP3” (PTC THERAPEUTICS, INC., priority 2022, published 2025).

Target: T1, NLRP3 (Homo sapiens, UniProt Q96P20)
T1 construct: host or cells: THP-1 cells differentiated with PMA
Experiment: IL-1β Secretion Assay (NLRP3-dependent IL1β secretion in THP1 cells)
Format: cell-based
Settings: PMA-differentiated THP-1 cells; compounds incubated 20 h; 2.5 μM Nigericin 3 h; HTRF IL-1β readout; read-out: IC50 IL-1β Inhibition
How it was run: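 THP-1 cells differentiated with 100 ng/mL PMA for 24 h, then given compound (7-point 3-fold series, 1:200 from DMSO) for 20 h in RPMI+5% FBS. NLRP3 activated with 2.5 μM nigericin for 3 h; secreted IL-1β measured by HTRF; IC50 from logistic fit of % inhibition.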

T1 sequence (Q96P20 whole entry): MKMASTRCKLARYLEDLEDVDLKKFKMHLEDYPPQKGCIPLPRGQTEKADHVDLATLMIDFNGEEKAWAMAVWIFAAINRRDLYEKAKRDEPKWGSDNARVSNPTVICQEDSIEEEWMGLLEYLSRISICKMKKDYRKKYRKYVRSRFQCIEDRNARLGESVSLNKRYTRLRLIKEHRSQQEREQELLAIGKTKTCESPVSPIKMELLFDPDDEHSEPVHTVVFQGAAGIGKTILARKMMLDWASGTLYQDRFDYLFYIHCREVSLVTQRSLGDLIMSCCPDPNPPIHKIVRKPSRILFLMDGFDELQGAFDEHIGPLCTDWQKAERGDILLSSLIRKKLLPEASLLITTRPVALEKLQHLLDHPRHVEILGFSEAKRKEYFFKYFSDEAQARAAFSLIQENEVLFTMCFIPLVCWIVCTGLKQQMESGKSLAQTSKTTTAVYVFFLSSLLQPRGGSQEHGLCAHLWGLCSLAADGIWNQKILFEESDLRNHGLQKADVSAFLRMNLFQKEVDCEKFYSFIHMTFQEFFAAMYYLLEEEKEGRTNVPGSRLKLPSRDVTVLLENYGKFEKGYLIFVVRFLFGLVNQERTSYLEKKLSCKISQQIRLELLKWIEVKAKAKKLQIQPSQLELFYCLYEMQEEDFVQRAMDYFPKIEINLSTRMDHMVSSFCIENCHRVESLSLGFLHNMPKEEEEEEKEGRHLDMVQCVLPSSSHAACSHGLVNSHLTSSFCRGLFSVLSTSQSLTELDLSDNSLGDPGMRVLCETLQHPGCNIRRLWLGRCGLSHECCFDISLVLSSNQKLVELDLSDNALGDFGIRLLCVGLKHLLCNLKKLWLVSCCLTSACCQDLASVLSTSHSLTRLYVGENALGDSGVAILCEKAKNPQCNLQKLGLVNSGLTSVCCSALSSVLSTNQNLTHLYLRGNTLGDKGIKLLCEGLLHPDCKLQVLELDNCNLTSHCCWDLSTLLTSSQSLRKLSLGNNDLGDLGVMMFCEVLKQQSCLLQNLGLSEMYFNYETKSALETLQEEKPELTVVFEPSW

SMILES	IC50 [nM]
COc1ccc(-c2nnc(N[C@@H]3CCOC[C@H]3O)n3cncc23)c(OC(F)F)c1 [Compound 268, (3S,4R)-4-({1-[2-(difluoromethoxy)-4-methoxyphenyl]imidazo[1,5-d][1,2,4]triazin-4-yl}amino)oxan-3-ol]	1 to 10
COc1ccc(-c2nnc(NC3CCNC3=O)n3cncc23)c(OC(F)F)c1 (stereo not shown) [Compound 269, 3-({1-[2-(difluoromethoxy)-4-methoxyphenyl]imidazo[1,5-d][1,2,4]triazin-4-yl}amino)pyrrolidin-2-one]	1 to 10
COc1ccc(-c2nnc(N[C@@H]3CCCC[C@H]3O)n3cncc23)c(OC(F)F)c1 [Compound 270, (1R,2R)-2-({1-[2-(difluoromethoxy)-4-methoxyphenyl]imidazo[1,5-d][1,2,4]triazin-4-yl}amino)cyclohexan-1-ol]	1 to 10
CCN1CCC[C@@H](Nc2nnc(-c3ccc(C(F)(F)F)cc3C(F)(F)F)c3cncn23)C1 [Compound 271, 1-[2,4-bis(trifluoromethyl)phenyl]-N-[(3R)-1-ethylpiperidin-3-yl]imidazo[1,5-d][1,2,4]triazin-4-amine]	< 1
CN1CCCC(Nc2nnc(-c3ccc(C(F)(F)F)cc3C(F)(F)F)c3cncn23)C1=O (stereo not shown) [Compound 272, 3-({1-[2,4-bis(trifluoromethyl)phenyl]imidazo[1,5-d][1,2,4]triazin-4-yl}amino)-1-methylpiperidin-2-one]	1 to 10
O[C@@H]1COCC[C@H]1Nc1nnc(-c2ccc(C(F)(F)F)cc2C(F)(F)F)c2cncn12 [Compound 273, (3S,4R)-4-({1-[2,4-bis(trifluoromethyl)phenyl]imidazo[1,5-d][1,2,4]triazin-4-yl}amino)oxan-3-ol]	1 to 10
O[C@H]1CCOC[C@@H]1Nc1nnc(-c2ccc(C(F)(F)F)cc2C(F)(F)F)c2cncn12 [Compound 274, (3S,4S)-3-({1-[2,4-bis(trifluoromethyl)phenyl]imidazo[1,5-d][1,2,4]triazin-4-yl}amino)oxan-4-ol]	10 to 100
O[C@H]1CC[C@@H](Nc2nnc(-c3ccc(C(F)(F)F)cc3C(F)(F)F)c3cncn23)CC1 [Compound 275, (1s,4s)-4-({1-[2,4-bis(trifluoromethyl)phenyl]imidazo[1,5-d][1,2,4]triazin-4-yl}amino)cyclohexan-1-ol]	10 to 100
O=C1NCCCC1Nc1nnc(-c2ccc(C(F)(F)F)cc2C(F)(F)F)c2cncn12 (stereo not shown) [Compound 276, 3-({1-[2,4-bis(trifluoromethyl)phenyl]imidazo[1,5-d][1,2,4]triazin-4-yl}amino)piperidin-2-one]	10 to 100
COc1ccc(-c2nnc(N[C@@H]3C[C@@H](F)CN(C)C3)n3cncc23)c(CC(F)(F)F)c1 [Compound 277, N-[(3R,5R)-5-fluoro-1-methylpiperidin-3-yl]-1-[4-methoxy-2-(2,2,2-trifluoroethyl)phenyl]imidazo[1,5-d][1,2,4]triazin-4-amine]	1 to 10
COc1ccc(-c2nnc(N[C@@H]3CCCN(CCO)C3)n3cncc23)c(CC(F)(F)F)c1 [Compound 278, 2-[(3R)-3-({1-[4-methoxy-2-(2,2,2-trifluoroethyl)phenyl]imidazo[1,5-d][1,2,4]triazin-4-yl}amino)piperidin-1-yl]ethan-1-ol]	< 1
Cc1ncn2c(N[C@@H]3CCCN(C)C3)nnc(-c3ccc(C(F)(F)F)cc3CC(F)(F)F)c12 [Compound 279, 8-methyl-N-[(3R)-1-methylpiperidin-3-yl]-1-[2-(2,2,2-trifluoroethyl)-4-(trifluoromethyl)phenyl]imidazo[1,5-d][1,2,4]triazin-4-amine]	< 1
Cc1ncn2c(N[C@@H]3CCCC[C@H]3O)nnc(-c3ccc(C(F)(F)F)cc3CC(F)(F)F)c12 [Compound 280, (1R,2R)-2-({8-methyl-1-[2-(2,2,2-trifluoroethyl)-4-(trifluoromethyl)phenyl]imidazo[1,5-d][1,2,4]triazin-4-yl}amino)cyclohexan-1-ol]	1 to 10
COc1ccc(-c2nnc(N[C@@H]3CCCN(C)C3)n3cncc23)c(C(F)(F)C(F)(F)F)c1 [Compound 281, 1-[4-methoxy-2-(pentafluoroethyl)phenyl]-N-[(3R)-1-methylpiperidin-3-yl]imidazo[1,5-d][1,2,4]triazin-4-amine]	1 to 10
O[C@@H]1CCCC[C@H]1Nc1nnc(-c2ccc(C(F)(F)F)cc2CC(F)(F)F)c2cncn12 [Compound 282, (1R,2R)-2-({1-[2-(2,2,2-trifluoroethyl)-4-(trifluoromethyl)phenyl]imidazo[1,5-d][1,2,4]triazin-4-yl}amino)cyclohexan-1-ol]	< 1
COc1ccc(-c2nnc(NC3CCNC3=O)n3cncc23)c(OC(F)(F)F)c1 (stereo not shown) [Compound 284, 3-({1-[4-methoxy-2-(trifluoromethoxy)phenyl]imidazo[1,5-d][1,2,4]triazin-4-yl}amino)pyrrolidin-2-one]	10 to 100
FC(F)(F)c1ccc(-c2nnc(Nc3cc[nH]n3)n3cncc23)c(C(F)(F)F)c1 [Compound 285, 1-[2,4-bis(trifluoromethyl)phenyl]-N-(1H-pyrazol-3-yl)imidazo[1,5-d][1,2,4]triazin-4-amine]	10 to 100

SMILES	IC50 [nM]
Cc1ccc(-c2nnc(N[C@@H]3CCCC[C@H]3O)n3cncc23)c(CC(F)(F)F)c1 [Compound 286, (1R,2R)-2-({1-[4-methyl-2-(2,2,2-trifluoroethyl)phenyl]imidazo[1,5-d][1,2,4]triazin-4-yl}amino)cyclohexan-1-ol]	1 to 10
O=C1NCCC1Nc1nnc(-c2ccc(Cl)cc2OC(F)(F)F)c2cncn12 (stereo not shown) [Compound 287, 3-({1-[4-chloro-2-(trifluoromethoxy)phenyl]imidazo[1,5-d][1,2,4]triazin-4-yl}amino)pyrrolidin-2-one]	1 to 10
Cc1ccc(-c2nnc(NC3CCNC3=O)n3cncc23)c(CC(F)(F)F)c1 (stereo not shown) [Compound 288, 3-({1-[4-methyl-2-(2,2,2-trifluoroethyl)phenyl]imidazo[1,5-d][1,2,4]triazin-4-yl}amino)pyrrolidin-2-one]	1 to 10
CN1CC[C@@H](O)[C@@H](Nc2nnc(-c3ccc(C(F)(F)F)cc3CC(F)(F)F)c3cncn23)C1 [Compound 289, (3S,4R)-1-methyl-3-({1-[2-(2,2,2-trifluoroethyl)-4-(trifluoromethyl)phenyl]imidazo[1,5-d][1,2,4]triazin-4-yl}amino)piperidin-4-ol]	1 to 10
O[C@H]1CCCC[C@@H]1Nc1nnc(-c2ccc(C(F)(F)F)cc2OC(F)(F)F)c2cncn12 [Compound 290]	10 to 100
COc1ccc(-c2nnc(N[C@H]3C[C@@H](CO)C3)n3cncc23)c(OC(F)(F)F)c1 [Compound 291, [(1s,3s)-3-({1-[4-methoxy-2-(trifluoromethoxy)phenyl]imidazo[1,5-d][1,2,4]triazin-4-yl}amino)cyclobutyl]methanol]	1 to 10
COc1ccc(-c2nnc(N[C@@H]3CCOC[C@H]3O)n3cncc23)c(OC(F)(F)F)c1 [Compound 292, (3S,4R)-4-({1-[4-methoxy-2-(trifluoromethoxy)phenyl]imidazo[1,5-d][1,2,4]triazin-4-yl}amino)oxan-3-ol]	10 to 100
O[C@H]1CCCC[C@@H]1Nc1nnc(-c2ccc(C(F)(F)F)cc2C(F)(F)F)c2cncn12 [Compound 293, (1S,2S)-2-({1-[2,4-bis(trifluoromethyl)phenyl]imidazo[1,5-d][1,2,4]triazin-4-yl}amino)cyclohexan-1-ol]	10 to 100
O=C1NCCC1Nc1nnc(-c2ccc(C(F)(F)F)cc2C(F)(F)F)c2cncn12 (stereo not shown) [Compound 294, 3-({1-[2,4-bis(trifluoromethyl)phenyl]imidazo[1,5-d][1,2,4]triazin-4-yl}amino)pyrrolidin-2-one]	1 to 10
CN1CCC[C@@H](Nc2nnc(-c3ccc(OC(F)F)cc3OC(F)(F)F)c3cncn23)C1 [Compound 295, 1-[4-(difluoromethoxy)-2-(trifluoromethoxy)phenyl]-N-[(3R)-1-methylpiperidin-3-yl]imidazo[1,5-d][1,2,4]triazin-4-amine]	< 1
FC(F)Oc1ccc(-c2nnc(Nc3cc[nH]n3)n3cncc23)c(OC(F)(F)F)c1 [Compound 296, 1-[4-(difluoromethoxy)-2-(trifluoromethoxy)phenyl]-N-(1H-pyrazol-3-yl)imidazo[1,5-d][1,2,4]triazin-4-amine]	10 to 100
Cc1ccc(-c2nnc(NC(C)c3cccc(O)c3)n3cncc23)c(CC(F)(F)F)c1 (stereo not shown) [Compound 297, 3-[1-({1-[4-methyl-2-(2,2,2-trifluoroethyl)phenyl]imidazo[1,5-d][1,2,4]triazin-4-yl}amino)ethyl]phenol]	1 to 10
C[C@]1(O)C[C@@H](Nc2nnc(-c3ccc(Cl)cc3C(F)(F)F)c3cncn23)C1 [Compound 298, (1s,3s)-3-({1-[4-chloro-2-(trifluoromethyl)phenyl]imidazo[1,5-d][1,2,4]triazin-4-yl}amino)-1-methylcyclobutan-1-ol]	1 to 10
C[C@]1(O)C[C@@H](Nc2nnc(-c3ccc(Cl)cc3OC(F)(F)F)c3cncn23)C1 [Compound 299, (1s,3s)-3-({1-[4-chloro-2-(trifluoromethoxy)phenyl]imidazo[1,5-d][1,2,4]triazin-4-yl}amino)-1-methylcyclobutan-1-ol]	1 to 10
O[C@@H]1CCCC[C@H]1Nc1nnc(-c2ccc(Cl)cc2OC(F)(F)F)c2cncn12 [Compound 300, (1R,2R)-2-({1-[4-chloro-2-(trifluoromethoxy)phenyl]imidazo[1,5-d][1,2,4]triazin-4-yl}amino)cyclohexan-1-ol]	1 to 10
OCCN1CCC[C@@H](Nc2nnc(-c3ccc(C(F)(F)F)cc3CC(F)(F)F)c3cncn23)C1 [Compound 301]	< 1
COc1ccc(-c2nnc(N[C@@H]3CCC[C@H](O)C3)n3cncc23)c(CC(F)(F)F)c1 [Compound 302, (1S,3R)-3-({1-[4-methoxy-2-(2,2,2-trifluoroethyl)phenyl]imidazo[1,5-d][1,2,4]triazin-4-yl}amino)cyclohexan-1-ol]	1 to 10
